Test results as given in EP0450065A1, “ANTIVIRAL AGENT” (priority 1988, dated 1990).
Where two headings read alike, the source gives them in different places.

Key:
Type in all cases: cell-based
[1] = test system: herpes simplex virus type 1 (KOS strain); test: One-step growth of virus, plaque assay with vero cells; conditions: 30 μg/ml, 24 hours; for log reduction at 30 µg/mL: 24 h, read-out: Intracellular virus Control ratio -logT/C
Procedure: Antiviral activity of Compound A and Compound B against one-step growth of herpes simplex virus type 1 (KOS strain) Cells grown in a monolayer, with a sample of a given compound diluted in a varying ratio added, were pretreated for 15 minutes. Then, the pretreated cells were infected with the herpes simplex virus type 1 (KOS strain) at an infecting ratio of 0.25 and left standing for 24 hours. At the end of the standing, the intracellular and extracellular amounts of virus were determined by the plaque assay with vero cells.

[2] = test system: herpes simplex virus type 2 (169 strain); test: 50% Tissue culture infective dose (TCID50), Read-Munch method, negative logarithm of virus dilution; parameters: key to Cytopathic effect [CPE] (5days) △TCID50 / Cytopathic effect [CPE] (6days) △TCID50 / Cytopathic effect [CPE] (3days) △TCID50: difference in -log TCID50 from untreated control; conditions: HSV-2 (169), Example 6
Procedure: (§1) The amount of virus infecting 50% of tissues (TCID₅₀) was determined by the Read-Munch method and expressed in negative logarithm of the maximum radio of dilution of virus. The difference of the amount thus determined from the amount found in the control (omitting the treatment with a chemical) was reported as ΔTCID₅₀. A sample whose ΔCPE's found on the last day of observation and on each of the days spent for the observation exceeded 1.0 was evaluated as effective.
(§2) In vitro antiviral activity of Compound A against herpes simplex virus type 2 (169 strain) The test was carried out by following the procedure of Example 3.

[3] = test system: herpes simplex virus type 1 (HF strain); test: as above
Procedure: (§3) In vitro antiviral activity of Compound A against herpes simplex virus type 1 (HF strain) Compound A was tested for antiviral effect by the following two methods.
as §1
(§4) In vitro antiviral effect of Compound A against herpes simplex virus type 1 (HF strain) The test was carried out by following the procedure of Example 3.

[4] = test system: herpes simplex virus type 2 (169 strain); test: Control of CPE (cytopathic effect) manifestation in vero cells; conditions: 20 μg/ml, HSV-2 (169), Example 6
Procedure: (§5) Vero cells cultured and grown in a monolayer on microplates to test for cytopathic effect due to viral infection, with solutions of Compound A diluted to varying ratios and solutions of virus diluted to varying ratios added severally thereto in a volume of 0.1 ml, were cultured under the conditions of 5% CO₂ and 37°C and were examined for CPE manifestation under a microscope. The observation was continued for five to six days.
(§6) The degree of CPE brought about by viral infection was rated on the five-point scale, wherein 3 stands for CPE observed on not less than 75% of cultured cells, 2 for CPE observed on 50% of cultured cells, 1 for CPE observed on 25% of cultured cells, 0.5 for occurrence of one to two extremely minute DPE spots, and 0 for perfect absence of recognizable CPE. The CPE scores obtained at the four holes in each microplate were averaged and the difference of the average from the average obtained in the control (omitting the treatment with a chemical) was reported as ΔCPE.
as §2

[5] = test system: herpes simplex virus type 1 (KOS strain); test: as above; conditions: 30 μg/ml, HSV-1 (KOS), Example 7
Procedure: as §5, §6
(§7) Antiviral activity of Compound A and Compound B against herpes simplex virus type 1 (KOS strain) The test was carried out by following the procedure of Example 3.

[6] = test system: herpes simplex virus type 1 (HF strain); test: as above; conditions: 20 μg/ml, HSV-1 (HF strain), Example 5
Procedure: as §3, §5, §6, §4

[7] = test system: herpes simplex virus type 1 (KOS strain); test: 50% Tissue culture infective dose (TCID50), Read-Munch method, negative logarithm of virus dilution
Procedure: as §1, §7

[8] = 20 μg/ml, HSV-1 (HF strain), Example 5
[9] = 30 μg/ml, HSV-1 (KOS), Example 7

**Q.** With Nc1ncnc2c1ncn2[C@@H]1O[C@H](CO)[C@@H](O)[C@@H]1O [Ara A, adenine arabinoside, reference compound] as the compound, how does the “Intracellular virus Average” value ([1]; extracellular virus) read?
**A.** Its value is 3.93×10^3 /dish.

**Q.** And the “Intracellular virus Average” value [1]?
**A.** Its value is 7.38×10^4 /dish.

**Q.** And the log reduction at 30 µg/mL ([1]; Human alphaherpesvirus 1, Vero, extracellular virus)?
**A.** The log reduction at 30 µg/mL was 3.88.

**Q.** What about the log reduction at 30 µg/mL ([1]; Human alphaherpesvirus 1, Vero) of the same compound?
**A.** The log reduction at 30 µg/mL was 4.74.

**Q.** And the inhibition at 30 µg/mL ([1]; Human alphaherpesvirus 1, Vero, read-out: Intracellular virus Control ratio %)?
**A.** The inhibition at 30 µg/mL was > 99.9%.

**Q.** And the “Cytopathic effect [CPE] (3days) TCID50” value ([2]; 20 μg/ml)?
**A.** The value was 7.0.

**Q.** And the “Cytopathic effect [CPE] (6days) TCID50” value ([2]; 20 μg/ml)?
**A.** Its value is 7.5.

**Q.** What about the “Cytopathic effect [CPE] (6days) △TCID50” value ([2]; 20 μg/ml, difference from control) of the same compound?
**A.** The value was “nil”.

**Q.** What about the log reduction at 20 µg/mL ([2]; Human alphaherpesvirus 2, 72 h, read-out: Cytopathic effect [CPE] (3days) △TCID50, 20 μg/ml, difference from control) of the same compound?
**A.** Its log reduction at 20 µg/mL is -0.3.

**Q.** What about the log reduction at 20 µg/mL ([2]; Human alphaherpesvirus 2, 144 h, read-out: Cytopathic effect [CPE] (6days) △TCID50, 20 μg/ml, difference from control) of the same compound?
**A.** Its log reduction at 20 µg/mL is -0.8.

**Q.** What about the “Cytopathic effect [CPE] (3days) TCID50” value [3, 8] of the same compound?
**A.** The value was 6.5.

**Q.** What about the “Cytopathic effect [CPE] (6days) TCID50” value [3, 8] of the same compound?
**A.** The value was 6.5.

**Q.** What about the “Cytopathic effect [CPE] (6days) ΔTCID50” value ([3]; 20 μg/ml, HSV-1 (HF strain), Example 5, difference from control) of the same compound?
**A.** Its value is “no discernible antiviral effect”.

**Q.** And the log reduction at 20 µg/mL ([3]; Human alphaherpesvirus 1, 72 h, read-out: Cytopathic effect [CPE] (3days) ΔTCID50)?
**A.** Its log reduction at 20 µg/mL is -0.2.

**Q.** And the log reduction at 20 µg/mL ([3]; Human alphaherpesvirus 1, 144 h, read-out: Cytopathic effect [CPE] (6days) ΔTCID50)?
**A.** The log reduction at 20 µg/mL was -0.2.

**Q.** What about the “Cytopathic effect [CPE] (3days) Average” value [4] of the same compound?
**A.** The value was 0.5.

**Q.** What about the “Cytopathic effect [CPE] (6days) Average” value [4] of the same compound?
**A.** The value was 3.0.

**Q.** And the “Cytopathic effect [CPE] (3days) △CPE” value ([4]; difference from control)?
**A.** The value was 1.0.

**Q.** And the “Cytopathic effect [CPE] (6days) △CPE” value ([4]; difference from control)?
**A.** The value was 0.

**Q.** And the “Cytopathic effect [CPE] (3days) Average” value [5]?
**A.** The value was 1.0.

**Q.** And the “Cytopathic effect [CPE] (5days) Average” value [5]?
**A.** The value was 2.0.

**Q.** What about the “Cytopathic effect [CPE] (3days) △CPE” value ([5]; difference from control) of the same compound?
**A.** Its value is 1.0.

**Q.** And the “Cytopathic effect [CPE] (5days) △CPE” value ([5]; difference from control)?
**A.** Its value is 1.0.

**Q.** And the “Cytopathic effect [CPE] (3days) Average” value [6]?
**A.** Its value is 2.5.

**Q.** And the “Cytopathic effect [CPE] (6days) Average” value [6]?
**A.** The value was 3.0.

**Q.** What about the “Cytopathic effect [CPE] (3days) ΔCPE” value ([6]; difference from control) of the same compound?
**A.** Its value is 0.25.

**Q.** What about the “Cytopathic effect [CPE] (6days) ΔCPE” value ([6]; difference from control) of the same compound?
**A.** Its value is 0.

**Q.** And the “Cytopathic effect [CPE] (3days) TCID50” value [7, 9]?
**A.** Its value is 5.0.

**Q.** What about the “Cytopathic effect [CPE] (5days) TCID50” value [7, 9] of the same compound?
**A.** The value was 5.7.

**Q.** And the log reduction at 30 µg/mL ([7]; Human alphaherpesvirus 1, 72 h, read-out: Cytopathic effect [CPE] (3days) △TCID50)?
**A.** The log reduction at 30 µg/mL was 0.5.

**Q.** And the log reduction at 30 µg/mL ([7]; Human alphaherpesvirus 1, 120 h, read-out: Cytopathic effect [CPE] (5days) △TCID50)?
**A.** Its log reduction at 30 µg/mL is 0.3.
